The results in this text go back to patent publication US8901307B2, “Chemical compounds 251” (AstraZeneca AB, priority 2008, dated 2014).

The target in one experiment is T1, human His-PIM1 [2-313] (Homo sapiens, UniProt P11309).
T1 construct: purified human His-PIM1 [2-313] enzyme; His (N); purchased University of Dundee, Scotland; host or cells: baculovirus system
Put plainly: PIM1 in-vitro mobility shift assay (Caliper LC3000, FL-Ahx-Bad phosphorylation). It is filed as biochemical. The note with it: 1.5 h; percent inhibition at 0.3 uM compound; read-out: PIM1 % I at 0.3 uM. An excerpt:
PIM1 In-Vitro Mobility Shift Assay
One may determine the activity of purified human His-PIM1 [2-313] enzyme in-vitro using a mobility shift assay on a Caliper LC3000 reader (Caliper, Mass.), which measures fluorescence of a phosphorylated and unphosphorylated FL-Ahx-Bad (FITC-(AHX)RSRHSSYPAGT-COOH, Primm 200606-00289, Primm Biotech, Mass.) and calculates a ratiometric value to determine percent turnover. One may express PIM1 (University of Dundee, Scotland) in baculovirus system with a typical yield of >85% purity.
(§1) One determines phosphorylation of the FL-Ahx-Bad in the presence and absence of the compound of interest. One preincubates 5 µl of Enzyme/Substrate/adenosine triphosphate (ATP) mix consisting of 2.4 nM PIM1, 3.6 uM FL-Ahx-Bad, and 240 uM ATP in 1.2× buffer with 2 ul of compound for 20 minutes at 25° C. One initiates reactions with 5 ul of Metal mix consisting of 24 mM MgCl2 in 1.2× buffer and incubated at 25° C. for 90 minutes and stops the reactions by addition of 5 ul of Stop mix consisting of 100 mM HEPES, 121 mM ethylenediamine tetraacetic acid, 0.8% Coatin Reagent 3 (Caliper, Mass.), and 0.01% Tween. One detects phosphorylated and unphosphorylated substrate by a Caliper LC3000 reader (Caliper, Mass.) in the presence of separation buffer consisting of 100 mM HEPES, 16 mM ethylenediamine tetraacetic acid, 0.1% Coatin Reagent 3 (Caliper, Mass.), 0.015% Brij-35, 5% DMSO, and 5.6 mM MgCl2. One may use the following separation conditions for a Caliper LC3000: −1.0 PSI, −2000 V upstream voltage, −400 V downstream voltage, 0.2 second sample sip, 45 second post sip, 10% laser strength.
The table 1 below provides the percent inhibition of PIM1 at 0.3 micromolar for Examples provided herein. Several examples were tested more than once. Variations in the experimental outcomes, negative values, or values over 100% inhibition are presumably due to experimental error inherent in the assay.

The target in another experiment is T2, human His-PIM2 [23-299] (Homo sapiens, UniProt Q9P1W9).
T2 construct: purified human His-PIM2 [23-299] enzyme; His (N); host or cells: E. coli
Description: PIM2 in-vitro mobility shift assay (Caliper LC3000, FL-Ahx-Bad phosphorylation). The class given is biochemical. The note with it: 1.5 h; percent inhibition at 0.3 uM compound; read-out: PIM2 % I at 0.3 uM.
Source text: PIM2 In-Vitro Mobility Shift Assay
One may determine the activity of purified human His-PIM2 [23-299] enzyme in-vitro using a mobility shift assay on a Caliper LC3000 reader (Caliper, Mass.), which measures fluorescence of a phosphorylated and unphosphorylated FL-Ahx-Bad (FITC-(AHX)RSRHSSYPAGT-COOH, Primm 200606-00289, Primm Biotech, Mass.) and calculates a ratiometric value to determine percent turnover. One may express PIM2 (produced at AstraZeneca, R&D Boston) in E. coli cells with a typical yield of >90% purity.
as §1, with “5 uL” for “5 µl”, “and 12” for “and 240”, “5 uL” for “5 ul”, “and incubates” for “and incubated”, “90 minutes. One” for “90 minutes and”, “stops” for “stops the”

Molecules are shown by their SMILES. Counter-ions that a name gives are not always drawn.

T2 sequence (Q9P1W9 23-299): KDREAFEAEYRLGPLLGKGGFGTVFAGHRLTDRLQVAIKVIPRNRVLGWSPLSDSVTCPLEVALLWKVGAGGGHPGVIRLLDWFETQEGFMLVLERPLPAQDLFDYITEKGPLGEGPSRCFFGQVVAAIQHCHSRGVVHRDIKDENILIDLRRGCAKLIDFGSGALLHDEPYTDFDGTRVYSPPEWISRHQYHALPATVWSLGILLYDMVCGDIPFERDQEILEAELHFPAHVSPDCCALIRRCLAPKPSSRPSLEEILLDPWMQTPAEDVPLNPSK
T1 sequence (P11309 2-313): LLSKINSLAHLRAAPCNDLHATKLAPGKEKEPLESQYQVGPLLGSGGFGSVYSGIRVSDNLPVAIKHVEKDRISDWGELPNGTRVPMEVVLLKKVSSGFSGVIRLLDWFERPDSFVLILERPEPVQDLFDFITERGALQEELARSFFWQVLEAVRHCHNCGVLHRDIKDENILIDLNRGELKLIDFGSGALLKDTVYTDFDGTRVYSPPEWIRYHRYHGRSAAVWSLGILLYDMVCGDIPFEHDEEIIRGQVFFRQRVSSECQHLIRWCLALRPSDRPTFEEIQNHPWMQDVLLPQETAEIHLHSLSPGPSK

For the compound `O=C(Cc1ccncc1)N[C@H]1CCN(c2c(Cl)cccc2/C=C2\SC(=O)NC2=O)C1` [Example 140], the inhibition at 0.3 µM on human His-PIM1 [2-313] was determined as 73.3%; on human His-PIM2 [23-299], 52%. Taken in the same sequence, the figures for `COc1cc(/C=C2\SC(=O)NC2=O)c(-c2ccncc2)cc1OC` [Example 66, (Z)-5-(4,5-dimethoxy-2-(pyridin-4-yl)benzylidene)thiazolidine-2,4-dione] were 50.3% and 20.9%.

`O=C1NC(=O)/C(=C/c2ccccc2N2CCCN(C(=O)C3CCCNC3)CC2)S1` (centres unmarked) [Example 102, (Z)-5-(2-(4-(piperidine-3-carbonyl)-1,4-diazepan-1-yl)benzylidene)thiazolidine-2,4-dione hydrochloride]: the results for the inhibition at 0.3 µM at human His-PIM1 [2-313] and on human His-PIM2 [23-299] were 93.3% and 91.9%, respectively. On the same counts, the results for `NCCCN1CCN(c2ccccc2/C=C2\SC(=O)NC2=O)CC1` [Example 127] are above 95% and above 95%.

Turning to `NC(=O)c1ccc(N2CCC[C@H](N)C2)c(/C=C2\SC(=O)NC2=O)c1` [Example 122AF, (S,Z)-4-(3-aminopiperidin-1-yl)-3-((2,4-dioxothiazolidin-5-ylidene)methyl)benzamide hydrochloride], the inhibition at 0.3 µM is 83.9% on human His-PIM1 [2-313] and 87.9% at human His-PIM2 [23-299]. On to `O=C1NC(=O)/C(=C/c2ccccc2N2CCCNCC2)S1` [Example 106, (Z)-5-(2-(1,4-diazepan-1-yl)benzylidene)thiazolidine-2,4-dione hydrochloride], for which the figures for the inhibition at 0.3 µM at human His-PIM1 [2-313] and at human His-PIM2 [23-299] were above 95% and 92.8%, respectively. For the compound `NCC1CCCN(c2c(Cl)cc(C(F)(F)F)cc2/C=C2\SC(=O)NC2=O)C1` (centres unmarked) [Example 4], the inhibition at 0.3 µM at human His-PIM1 [2-313] is above 95%; on human His-PIM2 [23-299], 79.6%. With `COc1cc(/C=C2\SC(=O)NC2=O)c(N2CC[C@@H](NC(=O)CCCCN)C2)cc1OC` [Example 119, (R,Z)-5-amino-N-(1-(2-((2,4-dioxothiazolidin-5-ylidene)methyl)-4,5-dimethoxyphenyl)pyrrolidin-3-yl)pentanamide hydrochloride], the inhibition at 0.3 µM on human His-PIM1 [2-313] is 56.2%; on human His-PIM2 [23-299], 20.1%. Regarding `COc1cc(/C=C2\SC(=O)NC2=O)c(N2CCC(N)C2)cc1OC` (centres unmarked) [Example 118, (5Z)-5-[2-(3-aminopyrrolidin-1-yl)-4,5-dimethoxybenzylidene]-1,3-thiazolidine-2,4-dione hydrochloride], the inhibition at 0.3 µM at human His-PIM1 [2-313] and on human His-PIM2 [23-299] was above 95% in each case. `N[C@H]1CCN(c2ccc(C(F)(F)F)cc2/C=C2\SC(=O)NC2=O)C1` [Example 88, (S,Z)-5-(2-(3-aminopyrrolidin-1-yl)-5-(trifluoromethyl)benzylidene)thiazolidine-2,4-dione hydrochloride]: the values for the inhibition at 0.3 µM on human His-PIM1 [2-313] and at human His-PIM2 [23-299] were above 95% and 88.4%, respectively. With `COc1cccc(/C=C2\SC(=O)NC2=O)c1N1CCNCC1` [Example 97, (Z)-5-(3-methoxy-2-(piperazin-1-yl)benzylidene)thiazolidine-2,4-dione hydrochloride], the figures for the inhibition at 0.3 µM at human His-PIM1 [2-313] and at human His-PIM2 [23-299] were above 95% and 86.4%, respectively. Turning to `CN(C)[C@H]1CCN(c2c(Cl)cc(C(F)(F)F)cc2/C=C2\SC(=O)NC2=O)C1` [Example 14], the inhibition at 0.3 µM at human His-PIM1 [2-313] was above 95%; at human His-PIM2 [23-299] it was 69.9%. Regarding `O=C1NC(=O)/C(=C/c2cc(C(F)(F)F)cc(Cl)c2N2CCC(N3CCCCC3)CC2)S1` [Example 31], the inhibition at 0.3 µM was 92.8% at human His-PIM1 [2-313] and 23.3% at human His-PIM2 [23-299]. Taken in the same sequence, the figures for `Cc1ccc(N2CC[C@H](N(C)C)C2)c(C=C2SC(=O)NC2=O)c1` [Example 84L, (S)-5-(2-(3-(dimethylamino)pyrrolidin-1-yl)-5-methylbenzylidene)thiazolidine-2,4-dione] were above 95% and 55.2%. Regarding `CC(=O)Nc1ccc(N2CCC(N(C)C)C2)c(/C=C2\SC(=O)NC2=O)c1` (centres unmarked) [Example 131B], the inhibition at 0.3 µM on human His-PIM1 [2-313] and at human His-PIM2 [23-299] was below 5% in each case. For the compound `C[C@@H]1CN(c2c(Cl)cccc2/C=C2\SC(=O)NC2=O)C[C@H](C)N1` [Example 37, (Z)-5-(3-chloro-2-((3S,5R)-3,5-dimethylpiperazin-1-yl)benzylidene)thiazolidine-2,4-dione], the inhibition at 0.3 µM at human His-PIM1 [2-313] stood at 89.7%; at human His-PIM2 [23-299], 69.4%. Turning to `NCCCC(=O)N1CCCN(c2ccccc2/C=C2\SC(=O)NC2=O)CC1` [Example 104, (Z)-5-(2-(4-(4-aminobutanoyl)-1,4-diazepan-1-yl)benzylidene)thiazolidine-2,4-dione hydrochloride], the inhibition at 0.3 µM was above 95% at human His-PIM1 [2-313] and 92.4% on human His-PIM2 [23-299]. `COc1cccc(/C=C2\SC(=O)NC2=O)c1N1CC[C@H](N)C1` [Example 96, hydrochloride]: the inhibition at 0.3 µM at human His-PIM1 [2-313] and on human His-PIM2 [23-299] was above 95% each time. As to `CN(C)[C@H]1CCN(c2ccc(Br)cc2C=C2SC(=O)NC2=O)C1` [Example 84M, (S)-5-(5-bromo-2-(3-(dimethylamino)pyrrolidin-1-yl)benzylidene)thiazolidine-2,4-dione], the results for the inhibition at 0.3 µM on human His-PIM1 [2-313] and on human His-PIM2 [23-299] were above 95% and 80.9%, respectively. Taken in the same sequence, the figures for `COCCOc1cccc(/C=C2\SC(=O)NC2=O)c1N1CC[C@H](N)C1` [Example 122AB, (S,Z)-5-(2-(3-aminopyrrolidin-1-yl)-3-(2-methoxyethoxy)benzylidene)thiazolidine-2,4-dione hydrochloride] were above 95% and above 95%. Take `CNCCN1CCN(c2ccccc2/C=C2\SC(=O)NC2=O)CC1` [Example 114, (Z)-5-(2-(4-(2-(methylamino)ethyl)piperazin-1-yl)benzylidene)thiazolidine-2,4-dione hydrochloride]: the inhibition at 0.3 µM on human His-PIM1 [2-313] and at human His-PIM2 [23-299] was above 95% in each case. On to `O=C1NC(=O)/C(=C/c2cnc3[nH]ccc3c2)S1` [Example 80, (5Z)-5-(1H-pyrrolo[2,3-b]pyridin-5-ylmethylene)-1,3-thiazolidine-2,4-dione], for which the inhibition at 0.3 µM at human His-PIM1 [2-313] is below 5%. Turning to `O=C1NC(=O)/C(=C/c2cccc(N3CCOCC3)c2)S1` [Example 83, (5Z)-5-(3-morpholin-4-ylbenzylidene)-1,3-thiazolidine-2,4-dione trifluoroacetate], on human His-PIM1 [2-313], the inhibition at 0.3 µM was 34%. In the case of `CN(C)CCCOc1ccccc1/C=C1\SC(=O)NC1=O` [Example 81, (5Z)-5-{2-[3-(dimethylamino)propoxy]benzylidene}-1,3-thiazolidine-2,4-dione], at human His-PIM1 [2-313], the inhibition at 0.3 µM is below 5%. `O=C1NC(=O)C(=Cc2c[nH]c3ccccc23)S1` (stereo in doubt) [Example 67, (Z)-5-((1H-indol-3-yl)methylene)thiazolidine-2,4-dione]: the inhibition at 0.3 µM on human His-PIM2 [23-299] was below 5%.

Consider `O=C1NC(=O)/C(=C/c2cc(C(F)(F)F)cc(Cl)c2N2CCOCC2)S1` [Example 29], for which, at human His-PIM1 [2-313], the inhibition at 0.3 µM was found to be 92.8%.
